Molecules are shown by their SMILES.

b-Raf (V600E), sequence (P15056 whole entry V600E): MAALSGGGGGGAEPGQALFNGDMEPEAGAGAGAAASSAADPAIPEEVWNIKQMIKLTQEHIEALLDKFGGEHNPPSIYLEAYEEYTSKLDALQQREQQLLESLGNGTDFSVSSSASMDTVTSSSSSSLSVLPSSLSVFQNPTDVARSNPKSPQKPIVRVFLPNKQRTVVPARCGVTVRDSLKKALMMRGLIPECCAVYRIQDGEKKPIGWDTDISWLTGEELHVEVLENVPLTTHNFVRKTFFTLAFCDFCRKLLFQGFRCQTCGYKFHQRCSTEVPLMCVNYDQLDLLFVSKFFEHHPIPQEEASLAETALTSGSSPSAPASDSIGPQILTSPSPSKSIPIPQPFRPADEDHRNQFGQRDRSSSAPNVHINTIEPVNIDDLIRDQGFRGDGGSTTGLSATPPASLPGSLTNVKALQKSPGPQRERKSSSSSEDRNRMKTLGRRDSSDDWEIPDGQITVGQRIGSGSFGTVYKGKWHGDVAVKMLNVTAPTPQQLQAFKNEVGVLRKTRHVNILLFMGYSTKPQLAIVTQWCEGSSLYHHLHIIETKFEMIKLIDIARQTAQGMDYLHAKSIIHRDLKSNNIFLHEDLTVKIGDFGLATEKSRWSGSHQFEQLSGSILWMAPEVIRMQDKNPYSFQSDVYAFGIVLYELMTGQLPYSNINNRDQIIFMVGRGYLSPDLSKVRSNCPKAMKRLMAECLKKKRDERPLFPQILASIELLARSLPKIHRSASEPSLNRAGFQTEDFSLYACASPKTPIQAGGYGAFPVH

One assay has as its target b-Raf (V600E) (Homo sapiens (Human), UniProt P15056, V600E). The settings on record: read-out: b-Raf IC-50; AlphaScreen, 60 min pre-incubation, 3 hours reaction.
Regarding `Cc1ccc(NC(=O)c2ccccc2)cc1-c1cc(N2CCOCC2)n(C)c(=O)c1` [Example 473, N-(4-methyl-3-(1-methyl-6-morpholino-2-oxo-1,2-dihydropyridin-4-yl)phenyl)benzamide], the IC50 amounted to 12.1 nM. Same read-out and setting: the figure for `Cc1ncc(NC(=O)c2ccnc(C(C)(C)O)c2)cc1-c1cc(N2CCOCC2)n2nccc2n1` [Example 797, 2-(2-hydroxypropan-2-yl)-N-(6-methyl-5-(7-morpholinopyrazolo[1,5-a]pyrimidin-5-yl)pyridin-3-yl)isonicotinamide] is 24.7 nM; for `CCNc1nc(-c2cc(NC(=O)c3ccnc(C(C)(C)C)c3)ccc2C)cc(N2CCOCC2)n1` [Example 696, 2-(tert-butyl)-N-(3-(2-(ethylamino)-6-morpholinopyrimidin-4-yl)-4-methylphenyl)isonicotinamide] it is 2.4 nM. Still for that read-out and setting: then `Cc1ccc(NC(=O)c2ccnc(C(C)(C)C#N)c2)cc1-c1cc(N2CCOCC2)nc(NC(C)(C)CO)n1` [Example 751, 2-(2-cyanopropan-2-yl)-N-(3-(2-((1-hydroxy-2-methylpropan-2-yl)amino)-6-morpholinopyrimidin-4-yl)-4-methylphenyl)isonicotinamide], with 1.4 nM; and `CCOc1nnc(-c2cc(NC(=O)c3ccc(CN(C)C)c(C(F)(F)F)c3)ccc2C)cc1N1CCOCC1` [Example 576, 4-((dimethylamino)methyl)-N-(3-(6-ethoxy-5-morpholinopyridazin-3-yl)-4-methylphenyl)-3-(trifluoromethyl)benzamide], with 3.5 nM. As to `CCN(C)c1cc(C(=O)Nc2ccc(C)c(-c3cc(N4CCOCC4)c(=O)n(C)c3)c2)ccn1` [Example 453, 2-(ethyl(methyl)amino)-N-(4-methyl-3-(1-methyl-5-morpholino-6-oxo-1,6-dihydropyridin-3-yl)phenyl)isonicotinamide], the IC50 stood at 4.3 nM.

As for `Cc1ccc(NC(=O)c2cnnc(C(C)(C)C#N)c2)cc1-c1cc(N2CCOCC2)c(OC2CCOCC2)nn1` [Example 583, 6-(2-cyanopropan-2-yl)-N-(4-methyl-3-(5-morpholino-6-((tetrahydro-2H-pyran-4-yl)oxy)pyridazin-3-yl)phenyl)pyridazine-4-carboxamide], the IC50 came out at 1.3 nM. Same read-out and setting: then `CCn1c(N2CCOCC2)cc(-c2cc(NC(=O)c3ccnc(C(C)(F)F)c3)ccc2C)cc1=O` [Example 519, 2-(1,1-difluoroethyl)-N-(3-(1-ethyl-6-morpholino-2-oxo-1,2-dihydropyridin-4-yl)-4-methylphenyl)isonicotinamide], with 0.6 nM; and `COc1nnc(-c2cc(NC(=O)c3ccnc(C4CC4)c3)ccc2C)cc1N1CCOCC1` [Example 550, 2-cyclopropyl-N-(3-(6-methoxy-5-morpholinopyridazin-3-yl)-4-methylphenyl)isonicotinamide], with 1.2 nM.

Still in this assay, the particulars now being: read-out: b-Raf IC-50; AlphaScreen, 60 min pre-incubation, reaction 3 hours at room temperature.
As for `Cc1ccc(NC(=O)c2cccc(-c3nnco3)c2)cc1-c1cc(N2CCOCC2)nc(N2CC(O)C2)c1` [Example 1100, N-(3-(2-(3-hydroxyazetidin-1-yl)-6-morpholinopyridin-4-yl)-4-methylphenyl)-3-(1,3,4-oxadiazol-2-yl)benzamide], the IC50 turned out to be 3.89 nM. Still for that read-out and setting: then `Cc1ccc(NC(=O)c2cncc(C(F)(F)F)c2)cc1-c1cc(N2CCOCC2)n(C)c(=O)c1` [Example 901, N-(4-methyl-3-(1-methyl-6-morpholino-2-oxo-1,2-dihydropyridin-4-yl)phenyl)-5-(trifluoromethyl)nicotinamide], with 0.85 nM. As to `Cc1ccc(NC(=O)c2ccnc(C(C)(C)O)c2)cc1-c1cc(N2CCOCC2)c(S(C)(=O)=O)nn1` [Example 932, 2-(2-hydroxypropan-2-yl)-N-(4-methyl-3-(6-(methylsulfonyl)-5-morpholinopyridazin-3-yl)phenyl)isonicotinamide], the IC50 came out at 6.89 nM. The same measure, in the same setting: then `Cc1ccc(NC(=O)c2ccnc(C(F)(F)F)c2)cc1-c1cc(N2CCOCC2)c2nccn2c1` [Example 849, N-(4-methyl-3-(8-morpholinoimidazo[1,2-a]pyridin-6-yl)phenyl)-2-(trifluoromethyl)isonicotinamide], with 3.8 nM.

`Cc1ncc(NC(=O)c2ccnc(C(F)F)c2)cc1-c1cc(N2CCOCC2)c(OC(C)C)nn1` [Example 913, 2-(difluoromethyl)-N-(5-(6-isopropoxy-5-morpholinopyridazin-3-yl)-6-methylpyridin-3-yl)isonicotinamide]: the IC50 was 2.16 nM.

Turning to `Cc1ncc(NC(=O)c2ccnc(C(C)(C)F)c2)cc1-c1cc(NCCO)nc(N2CCOC[C@H]2C)c1` [Example 1138, (R)-2-(2-fluoropropan-2-yl)-N-(2′-((2-hydroxyethyl)amino)-2-methyl-6′-(3-methylmorpholino)-[3,4′-bipyridin]-5-yl)isonicotinamide], the IC50 was determined as 27.8 nM.

As for `Cc1ncc(NC(=O)c2ccnc(C(C)(C)F)c2)cc1-c1cc(N2CCOCC2)nc(N2CC(C)(O)C2)c1` [Example 1106, 2-(2-fluoropropan-2-yl)-N-(2′-(3-hydroxy-3-methylazetidin-1-yl)-2-methyl-6′-morpholino-[3,4′-bipyridin]-5-yl)isonicotinamide], the IC50 was 8.59 nM. The same measure, in the same setting: the figure for `Cc1ccc(NC(=O)c2cnnc(C(C)(C)C#N)c2)cc1-c1cc(OC2CCOCC2)nc(N2CCOCC2)c1` [Example 1153, 6-(2-cyanopropan-2-yl)-N-(4-methyl-3-(2-morpholino-6-((tetrahydro-2H-pyran-4-yl)oxy)pyridin-4-yl)phenyl)pyridazine-4-carboxamide] is 2.15 nM; for `Cc1ccc(NC(=O)c2ccnc(S(C)(=O)=O)c2)cc1-c1cc(N2CCOCC2)nc(N2CCOCC2)c1` [Example 1118, N-(3-(2,6-dimorpholinopyridin-4-yl)-4-methylphenyl)-2-(methylsulfonyl)isonicotinamide] it is 1.02 nM.

The same assay, now with this note: read-out: b-Raf IC-50; Table 2; AlphaScreen, 3 hours reaction.
On to `Cc1ccc(NC(=O)c2cccc(C(F)(F)F)c2)cc1-c1cc(N2CCOCC2)ncn1` [Example 1, N-(4-methyl-3-(6-morpholinopyrimidin-4-yl)phenyl)-3-(trifluoromethyl)benzamide], for which the IC50 came to 0.3 nM.

`Cn1cc(-c2cc(NC(=O)c3ccnc(C(F)(F)F)c3)ccc2F)cc(N2CCOCC2)c1=O` [Example 418]: the IC50 turned out to be 3.5 nM. Same read-out and setting: the figure for `CCOc1ncc(-c2cc(NC(=O)c3ccnc(C(C)(F)F)c3)ccc2C)cc1N1CCOCC1` [Example 233, 2-(1,1-difluoroethyl)-N-(3-(6-ethoxy-5-morpholinopyridin-3-yl)-4-methylphenyl)isonicotinamide] is 0.6 nM. On the same count and under the same terms, the figure for `Cc1ccc(NC(=O)c2cccc(C(F)(F)F)c2)cc1-c1cnc(N2CCOCC2)s1` [Example 198, N-(4-methyl-3-(2-morpholinothiazol-5-yl)phenyl)-3-(trifluoromethyl)benzamide] is 0.8 nM. On the same count and under the same terms, the figure for `Cc1ccc(NC(=O)c2cccc(C(F)(F)F)c2)cc1-c1cc(N2CCOCC2)c(=O)n(CC2(C)COC2)c1` [Example 337, N-(4-methyl-3-(1-((3-methyloxetan-3-yl)methyl)-5-morpholino-6-oxo-1,6-dihydropyridin-3-yl)phenyl)-3-(trifluoromethyl)benzamide] is 12.5 nM; for `Cn1cc(-c2cc(C(=O)Nc3cccc(C(F)(F)F)c3)ccc2Cl)cc(N2CCOCC2)c1=O` [Example 425, 4-chloro-3-(1-methyl-5-morpholino-6-oxo-1,6-dihydropyridin-3-yl)-N-(3-(trifluoromethyl)phenyl)benzamide] it is 2.6 nM. With `Cc1ncc(NC(=O)c2cc(C(F)(F)F)ccn2)cc1-c1cnc(OCCO)c(N2CCOCC2)c1` [Example 301, N-(6′-(2-hydroxyethoxy)-2-methyl-5′-morpholino-[3,3′-bipyridin]-5-yl)-4-(trifluoromethyl)picolinamide], the IC50 amounted to 3.2 nM.

In the case of `Cn1cc(-c2cc(C(=O)Nc3cccc(C(C)(C)C#N)c3)ccc2Cl)cc(N2CCOCC2)c1=O` [Example 427, 4-chloro-N-(3-(2-cyanopropan-2-yl)phenyl)-3-(1-methyl-5-morpholino-6-oxo-1,6-dihydropyridin-3-yl)benzamide], the IC50 worked out at 6 nM.

For the molecule `Cc1ccc(NC(=O)c2cnnc(C3(C#N)CC3)c2)cc1-c1cnc(OC2CCOCC2)c(N2CCOCC2)c1` [Example 302, 6-(1-cyanocyclopropyl)-N-(4-methyl-3-(5-morpholino-6-((tetrahydro-2H-pyran-4-yl)oxy)pyridin-3-yl)phenyl)pyridazine-4-carboxamide], the IC50 is 0.6 nM. The same measure, in the same setting: then `COc1ncc(-c2cc(NC(=O)c3ccnc(C4(C#N)CC4)c3)cnc2C)cc1N1CCOCC1` [Example 283, 2-(1-cyanocyclopropyl)-N-(6′-methoxy-2-methyl-5-morpholino-[3,3′-bipyridin]-5-yl)isonicotinamide], with 6 nM; and `Cc1ccc(NC(=O)c2ccnc(C(C)(C)O)c2)cc1-c1cc(N2CCOCC2)c(=O)n(C)c1` [Example 350, 2-(2-hydroxypropan-2-yl)-N-(4-methyl-3-(1-methyl-5-morpholino-6-oxo-1,6-dihydropyridin-3-yl)phenyl)isonicotinamide], with 3.5 nM; and `Cc1ccc(NC(=O)c2cccc(C(F)(F)F)c2)cc1-c1cc(N2CCOCC2)ccn1` [Example 111, N-(4-methyl-3-(4-morpholinopyridin-2-yl)phenyl)-3-(trifluoromethyl)benzamide], with 0.5 nM. Still for that read-out and setting: then `Cc1ccc(NC(=O)c2ccnc(C3CC3)c2)cc1-c1cc(N2CCOCC2)c(=O)n(C)c1` [Example 354, 2-cyclopropyl-N-(4-methyl-3-(1-methyl-5-morpholino-6-oxo-1,6-dihydropyridin-3-yl)phenyl)isonicotinamide], with 1 nM; and `CCOc1ncc(-c2cc(NC(=O)c3ccnc(S(C)(=O)=O)c3)cnc2C)cc1N1CCOCC1` [Example 243, N-(6′-ethoxy-2-methyl-5′-morpholino-[3,3′-bipyridin]-5-yl)-2-(methylsulfonyl)isonicotinamide], with 5.3 nM.

The values above are taken from patent US9694016B2 (Novartis AG, priority 2013, dated 2017).
